pEC50, pIC50, pKd: −log10 of the molar value. Counter-ions that a name gives are not always drawn. Like-named read-outs stand apart in the source and are kept apart here.
Legend:
SK-BR-3 = assay: Antiproliferation assay 7, SK-BR-3; type: cell-based; conditions: Homo sapiens; SK-BR-3 cells, 72 hours, CellTiter-Glo; read-out: Antiproli SK-BR-3 IC50 median
Experimental: (§1) Assessment of the Anti-Proliferative Effect of Compounds in Different Cell Lines
(§2) The impact of compounds on the proliferation of different cell lines was assessed using the CellTiter-Glo® Luminescent Cell Viability reagent from Promega (G7573).
(§3) In parallel, cells were plated in a reference (day 0) plate for time zero determination.
(§4) Rim wells were excluded. The cells were incubated for 72 hours in a humidified incubator at 37° C. The day 0 plate was measured by adding 30 μL/well of CTG solution (CellTiter-Glo® Luminescent Cell Viability reagent, Promega G7573) to time zero wells in the reference plate followed by a 10 minutes incubation and luminescence reading at 0.1 ms. using the PHERAstar FS microplate reader (BMG Labtech).
(§5) After 72 hours incubation, the treated plates were measured in the same way as the day 0 plate mentioned above.

SUDHL5 [1] = assay: Antiproliferation assay 7, SUDHL5; type: cell-based; conditions: SUDHL5 cells, CellTiter-Glo, read-out: Antiproli SUDHL5 IC50 (median)
How it was run: (§6)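 CellTiter-Glo luminescence readout; 72 h compound exposure, 37° C, humidified. Day 0 reference plate read at plating for time-zero baseline.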

HMC-1-8 = assay: Antiproliferation assay 7, HMC-1-8; type: cell-based; conditions: HMC-1-8 cells, CellTiter-Glo, read-out: Antiproli HMC-1-8 IC50 median
How it was run: as §6

SUDHL5 [2] = assay: Induction of cytotoxicity (Assay 6), SUDHL5
Experimental: Assay 6 Induction of Cytotoxicity Upon Treatment of Cells with Selected Compounds
Therefore, cytotoxicity assays were run in parallel in SUDHL5 and SUDHL10 cells.
The different cell lines were plated in culture medium (RPMI 1640 [GIBCO #22400-089]supplemented with 10% Fetal Bovine Serum) at a density of 3,300 cells in 30 μL/well in a sterile, solid black, flat bottom, polystyrene, TC-treated 384-well microplate (Corning #3571) using Multidrop Combi Reagent Dispenser. As a control, medium without cells was also added to the plate. Cells were incubated in a humidified incubator at 37° C. overnight. […] Rim wells were excluded. The cells were incubated for 5 hours in a humidified incubator at 37° C. After this incubation, 30 μL of CellTiter-Glo® Luminescent Cell Viability reagent (Promega, G7573) was added to each well using the Multidrop Combi Reagent Dispenser, followed by 15 minutes incubation on a shaker at room temperature. Finally, luminescence was read at 0.1 ms, with a gain of 3000 using the PHERAstar FS microplate reader (BMG Labtech).

SUDHL10 [3] = assay: Induction of cytotoxicity (Assay 6), SUDHL10
SUDHL5 [4] = assay: Induction of caspase-3/7 activity (Assay 4), SUDHL5; type: cell-based; conditions: SUDHL5 cells
How it was run: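 DLBCL cells treated with compounds for 3 hours at 37° C. Caspase-3/7 activity measured by Caspase-Glo 3/7 luminescence, with medium-only background subtracted.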

SUDHL10 [5] = assay: Induction of caspase-3/7 activity (Assay 4), SUDHL10; type: cell-based; conditions: SUDHL10 cells
How it was run: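 Luminescent Caspase-Glo 3/7 read-out after a 3 h, 37 °C compound exposure of the DLBCL line SUDHL10. Values are background-corrected using medium-only wells.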

MV-4-11 = assay: Antiproliferation assay 7, MV-4-11; type: cell-based; conditions: MV-4-11 cells, CellTiter-Glo, read-out: Antiproli MV-4-11 IC50 median
How it was run: as §6

AMO-1 = assay: Antiproliferation assay 7, AMO-1; type: cell-based; conditions: AMO-1 cells, CellTiter-Glo, read-out: Antiproli AMO-1 IC50 median
How it was run: as §6

MCL-1 [6] = target: T1, MCL-1 (Homo sapiens (Human), UniProt Q07820, K194A/K197A/R201A); assay: Protein-compound interaction assay (SPR assay 8); type: binding; conditions: immobilized MBP-MCL-1, 25° C.; for pKd: read-out: KD (geo mean)
T1 sequence (Q07820 whole entry K194A/K197A/R201A, looked up): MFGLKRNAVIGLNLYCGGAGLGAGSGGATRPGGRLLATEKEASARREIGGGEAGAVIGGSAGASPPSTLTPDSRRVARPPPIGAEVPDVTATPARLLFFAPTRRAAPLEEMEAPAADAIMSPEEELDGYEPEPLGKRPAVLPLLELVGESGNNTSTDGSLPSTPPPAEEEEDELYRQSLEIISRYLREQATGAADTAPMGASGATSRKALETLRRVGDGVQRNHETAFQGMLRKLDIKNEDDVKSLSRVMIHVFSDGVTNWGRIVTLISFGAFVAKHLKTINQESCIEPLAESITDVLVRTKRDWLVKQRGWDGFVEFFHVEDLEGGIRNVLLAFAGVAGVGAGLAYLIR
Source text: Assay 8 Protein-Compound Interaction Assay (SPR Assay)
The ability of the compounds described in this invention to bind to MCL-1 may be determined using surface plasmon resonance (SPR). This allows for the quantification of binding in terms of the equilibrium dissociation constant (KD [M]), as well as association and dissociation rate constants (kon [1/M 1/s] and koff [1/s], respectively). The measurements may be performed using Biacore® T200 or Biacore® S200 instruments (GE Healthcare).
MBP-MCL-1 was diluted in 1×PBS-P+ (GE Healthcare) and injected on the activated chip surface. Subsequently, a solution of 1 M ethanolamine-HCl (GE Healthcare) was injected to block unreacted groups, resulting in approximately 400-2500 response units (RU) of immobilized protein. A reference surface was generated by treatment with NHS-EDC and ethanolamine-HCl.
The double-referenced sensorgrams were fit to a simple reversible Langmuir 1:1 reaction mechanism as implemented in the Biacore® T200 and S200 evaluation software (T200 evaluation software version 2.0 and S200 evaluation software version 1.0, GE Healthcare).

MCL-1 [7] = target: T1, MCL-1; assay: Protein-protein interaction assay MCL-1/Noxa BH3 peptide (MCL-1 Assay, TR-FRET); type: binding; conditions: read-out: MCL-1 Assay IC50 (median)
SUDHL10 [8] = assay: Antiproliferation assay 7, SUDHL10; type: cell-based; conditions: Homo sapiens, SU-DHL10, 72 h, SUDHL10 cells, CellTiter-Glo, read-out: Antiproli SUDHL10 IC50 (median)
Experimental: as §1, §2, §3, §4, §5

[9] = Homo sapiens, SU-DHL-5, 5 h, read-out: Cytotox SUDHL5 IC50 (median), SUDHL5 cells, 5 hours, CellTiter-Glo
[10] = Homo sapiens, SU-DHL10, 5 h, read-out: Cytotox SUDHL10 IC50 (median), SUDHL10 cells, 5 hours, CellTiter-Glo
[11] = Homo sapiens, SU-DHL-5, 3 h, Caspase-Glo 3/7, read-out: Caspase SUDHL5 EC50 (median)
[12] = Homo sapiens, SU-DHL10, 3 h, Caspase-Glo 3/7, read-out: Caspase SUDHL10 EC50 (median)
[13] = read-out: Cytotox SUDHL5 IC50 (median), SUDHL5 cells, 5 hours, CellTiter-Glo
[14] = read-out: Cytotox SUDHL10 IC50 (median), SUDHL10 cells, 5 hours, CellTiter-Glo
[15] = 3 hours, Caspase-Glo 3/7, read-out: Caspase SUDHL5 EC50 (median)
[16] = 3 hours, Caspase-Glo 3/7, read-out: Caspase SUDHL10 EC50 (median)

Q: With `Cc1c2c(nn1C)CN(C)CCCCn1c(C(=O)O)c(CCCOc3cccc4ccccc34)c3ccc(Cl)c-2c31` (racemic) [Example 11, (rac)-4-chloro-2,3,14-trimethyl-7-[3-(naphthalen-1-yloxy)propyl]-10,11,12,13,14,15-hexahydro-2H-pyrazolo[3′,4′:8,9][1,6]diazacycloundecino[10,11,1-hi]indole-8-carboxylic Acid] as the compound, how does the pIC50 (SK-BR-3) read?
A: 5.83

Q: What about the pIC50 (SUDHL5 [1]; Homo sapiens, SU-DHL-5, 72 h) of the same compound?
A: 6.52

Q: What about the pIC50 (HMC-1-8; 72 h) of the same compound?
A: 5.38

Q: And the pIC50 (SUDHL5 [2]; [9])?
A: 6.74

Q: What about the pIC50 (SUDHL10 [3]; [10]) of the same compound?
A: 6.43

Q: What about the pEC50 (SUDHL5 [4]; [11]) of the same compound?
A: 6.85

Q: And the pEC50 (SUDHL10 [5]; [12])?
A: 6.59

Q: And the pIC50 (MV-4-11; Homo sapiens, MV4-11, 72 h)?
A: 6.35

Q: And the pIC50 (AMO-1; Homo sapiens, AMO1, 72 h)?
A: 6.14

Q: With `Cc1c2c(nn1C)CN(C)CCCCn1c(C(=O)O)c(CCCOc3cccc4cc(F)ccc34)c3ccc(Cl)c-2c31` (single isomer, unassigned; enantiomer 1) [Example 31, (+)-4-chloro-7-{3-[(6-fluoronaphthalen-1-yl)oxy]propyl}-2,3,14-trimethyl-10,11,12,13,14,15-hexahydro-2H-pyrazolo[3′,4′:8,9][1,6]diazacycloundecino[10,11,1-hi]indole-8-carboxylic acid-N-ethylethanamine Salt (Enantiomer 1)] as the compound, how does the pKd (MCL-1 [6]) read?
A: 9.37

Q: What about the pIC50 (SUDHL5 [1]; 72 hours) of the same compound?
A: 7.28

Q: And the pIC50 (MCL-1 [7])?
A: 9.15

Q: What about the pIC50 (HMC-1-8; 72 hours) of the same compound?
A: 5.72

Q: What about the pIC50 (SUDHL5 [2]; [13]) of the same compound?
A: 7.28

Q: And the pIC50 (SUDHL10 [3]; [14])?
A: 7.09

Q: And the pEC50 (SUDHL5 [4]; [15])?
A: 7.26

Q: And the pEC50 (SUDHL10 [5]; [16])?
A: 7.19

Q: And the pIC50 (MV-4-11; 72 hours)?
A: 6.56

Q: What about the pIC50 (AMO-1; 72 hours) of the same compound?
A: 6.76

Q: How did the pIC50 (SK-BR-3) turn out when `CCc1c2c(nn1C)CN(C)CCCCn1c(C(=O)O)c(CCCOc3cccc4ccccc34)c3ccc(Cl)c-2c31` (racemic) [Example 22, (rac)-4-chloro-3-ethyl-2,14-dimethyl-7-[3-(naphthalen-1-yloxy)propyl]-10,11,12,13,14,15-hexahydro-2H-pyrazolo[3′,4′:8,9][1,6]diazacycloundecino[10,11,1-hi]indole-8-carboxylic Acid] was run?
A: 6.05

Q: What about the pIC50 (SUDHL5 [1]; Homo sapiens, SU-DHL-5, 72 h) of the same compound?
A: 6.55

Q: And the pIC50 (SUDHL5 [2]; [9])?
A: 6.80

Q: What about the pIC50 (SUDHL10 [3]; [10]) of the same compound?
A: 6.40

Q: What about the pEC50 (SUDHL5 [4]; [11]) of the same compound?
A: 6.85

Q: What about the pEC50 (SUDHL10 [5]; [12]) of the same compound?
A: 6.57

Q: And the pIC50 (MV-4-11; Homo sapiens, MV4-11, 72 h)?
A: 6.16

Q: And the pIC50 (AMO-1; Homo sapiens, AMO1, 72 h)?
A: 6.18

Q: What does the source list for `Cc1c2c(nn1C)N(C)CCCCCn1c(C(=O)O)c(CCCOc3cccc4ccccc34)c3ccc(Cl)c-2c31` (single isomer, unassigned) [Example 72, (+)-4-chloro-2,3,15-trimethyl-7-{3-[(naphthalen-1-yl)oxy]propyl}-10,11,12,13,14,15-hexahydro-2H-pyrazolo[4′,3′:4,5][1,6]diazacycloundecino[3,2,1-hi]indole-8-carboxylic acid]?
A: pKd (MCL-1 [6]): 7.96; koff (MCL-1 [6]; read-out: koff (geo mean)): 0.016 s⁻¹; kon (MCL-1 [6]; read-out: kon (geo mean)): 1.4e+06 M⁻¹ s⁻¹; pIC50 (SUDHL5 [1]; Homo sapiens, SU-DHL-5, 72 h): 5.92; pIC50 (MCL-1 [7]): 9.02; pIC50 (HMC-1-8; 72 h): 4.72; pIC50 (SUDHL5 [2]; [13]): 6.06; pIC50 (SUDHL10 [3]; [14]): 5.80; pEC50 (SUDHL5 [4]; [15]): 6.15; pEC50 (SUDHL10 [5]; [16]): 5.72; pIC50 (AMO-1; 72 hours): 5.77

Q: With `Cc1c2c(nn1C)COCC1CC1Cn1c(C(=O)O)c(CCCOc3cccc4ccccc34)c3ccc(Cl)c-2c31` (single isomer, unassigned; stereoisomer 1) [Example 65, (9aS,10aR or 9aR, 10aS)-3-chloro-4,5-dimethyl-14-{3-[(naphthalen-1-yl)oxy]propyl}-5,7,9a, 10,10a, 11-hexahydro-9H-cyclopropa[3,4]pyrazolo[4′,3′:9,10][1,6]oxazacycloundecino-[8,7,6-hi]indole-13-carboxylic Acid—Stereoisomer 1] as the compound, how does the pKd (MCL-1 [6]) read?
A: 8.44

Q: And the pIC50 (MCL-1 [7])?
A: 9.04

Q: And the pIC50 (HMC-1-8; 72 hours)?
A: 5.12

Q: What about the pIC50 (SUDHL5 [2]; [13]) of the same compound?
A: 6.39

Q: What about the pIC50 (SUDHL10 [3]; [14]) of the same compound?
A: 6.40

Q: What about the pEC50 (SUDHL5 [4]; [11]) of the same compound?
A: 6.39

Q: And the pEC50 (SUDHL10 [5]; [16])?
A: 6.24

Q: And the pIC50 (AMO-1; Homo sapiens, AMO1, 72 h)?
A: 5.85

Q: How did the pIC50 (SK-BR-3) turn out when `CCc1c2c(nn1C)COCCCCn1c(C(=O)O)c(CCCOc3cccc4ccccc34)c3ccc(Cl)c-2c31` (single isomer, unassigned; enantiomer 1) [Example 20, 4-chloro-3-ethyl-2-methyl-7-[3-(naphthalen-1-yloxy)propyl]-2,10,11,12,13,15-hexahydropyrazolo[4′,3′:9,10][1,6]oxazacycloundecino[8,7,6-hi]indole-8-carboxylic Acid (Enantiomer 1)] was run?
A: 5.60

Q: What about the pIC50 (SUDHL5 [1]; 72 hours) of the same compound?
A: 6.66

Q: And the pIC50 (SUDHL10 [8])?
A: 6.35

Q: And the pIC50 (HMC-1-8; 72 h)?
A: 5.61

Q: What about the pIC50 (SUDHL5 [2]; [13]) of the same compound?
A: 6.77

Q: What about the pEC50 (SUDHL5 [4]; [15]) of the same compound?
A: 6.85

Q: And the pIC50 (MV-4-11; 72 hours)?
A: 6.04

Q: What about the pIC50 (AMO-1; Homo sapiens, AMO1, 72 h) of the same compound?
A: 6.06

Q: How did the pKd (MCL-1 [6]) turn out when `Cc1c2c(nn1CCCN1CCN(C)CC1)COCCCCn1c(C(=O)O)c(CCCOc3cccc4ccccc34)c3ccc(Cl)c-2c31` (single isomer, unassigned; enantiomer 1) [Example 49, (+)-4-chloro-3-methyl-2-[3-(4-methylpiperazin-1-yl)propyl]-7-{3-[(naphthalen-1-yl)oxy]propyl}-2,10,11,12,13,15-hexahydropyrazolo[4′,3′:9,10][1,6]oxazacycloundecino[8,7,6-hi]indole-8-carboxylic Acid (Enantiomer 1)] was run?
A: 8.77

Q: What about the pIC50 (SUDHL5 [1]; 72 hours) of the same compound?
A: 6.32

Q: And the pIC50 (MCL-1 [7])?
A: 9.12

Q: And the pIC50 (HMC-1-8; 72 hours)?
A: 5.51

Q: And the pIC50 (SUDHL5 [2]; [13])?
A: 6.18

Q: What about the pIC50 (SUDHL10 [3]; [14]) of the same compound?
A: 6.21

Q: And the pEC50 (SUDHL5 [4]; [15])?
A: 6.28

Q: What about the pEC50 (SUDHL10 [5]; [16]) of the same compound?
A: 6.35

Q: And the pIC50 (AMO-1; 72 hours)?
A: 5.87

— patent US11447504B2, “Macrocyclic chlorine substituted indole derivatives” (Bayer Aktiengesellschaft, priority 2017, dated 2022)
